Values quoted from earlier work, collected in paper PMC6851657 (Clinical Pharmacology and Therapeutics, 2019).

Conditions: ref fluconazole SimCYP compound file V16; cited from earlier work

In the case of `OC(Cn1cncn1)(Cn1cncn1)c1ccc(F)cc1F` [Fluconazole, fluconazole], the “CL following i.v. administration” value is given as 1.01 L/h, the “In vivo renal clearance in a 20–30 year healthy man” value is given as 0.7 L/h and the “Volume of distribution at steady state” value is given as 0.748 L/kg.
